Test results reported in patent US10105357B2, “Indication of antibiotic drugs for preparation of cancer inhibition pharmaceutical composition” (LAUNX BIOMEDICAL CO., LTD., priority 2014, dated 2018).

How the values were obtained:
TOV-21G = experiment: Cell viability analysis, ovarian cancer TOV-21G; format: cell-based, human
T24 = experiment: Cell viability analysis, bladder cancer T24; format: cell-based, human
[1] = system: HCT116 (p53+) (Colorectal Carcinoma)
[2] = system: HI650 (Lung Adenocarcinoma); experiment: Cell viability analysis, lung cancer HI650; format: cell-based, human
[3] = system: A375 (Amelanotic Melanoma); experiment: Cell viability analysis, skin cancer A375; format: cell-based, human
[4] = system: LoVo (Colorectal Adenocarcinoma); experiment: Cell viability analysis, colon cancer LoVo; format: cell-based, human
U-2OS = experiment: Cell viability analysis, osteosarcoma U-2OS; format: cell-based, human
AsPC-1 = experiment: Cell viability analysis, pancreatic cancer AsPC-1; format: cell-based, human
[5] = system: PC3 (p53−) (Prostate Adenocarcinoma); experiment: Cell viability analysis, prostate cancer PC3; format: cell-based, human
[6] = system: C-33A (Cervical carcinoma); experiment: Cell viability analysis, cervical cancer C-33A; format: cell-based, human
[7] = system: A549 (Lung Adenocarcinoma); experiment: Cell viability analysis, lung cancer A549; format: cell-based, human
[8] = system: MDA-MB-231 (Mammary Gland, Adenocarcinoma); experiment: Cell viability analysis, breast cancer MDA-MB-231; format: cell-based, human
[9] = system: 786-O (Renal adenocarcinoma); experiment: Cell viability analysis, renal cancer 786-O; format: cell-based, human
[10] = system: MKN-45 (Gastric Adenocarcinoma); experiment: Cell viability analysis, gastric cancer MKN-45; format: cell-based, human
[11] = system: TSGH-8301 (Urinary Bladder Carcinoma); experiment: Cell viability analysis, bladder cancer TSGH-8301; format: cell-based, human
[12] = system: HeLa (Cervix Adenocarcinoma); experiment: Cell viability analysis, cervical cancer HeLa; format: cell-based, human
NIH: OVCAR-3 = experiment: Cell viability analysis, ovarian cancer NIH: OVCAR-3; format: cell-based, human
[13] = system: SAS (Tongue squamous cell carcinoma); experiment: Cell viability analysis, tongue cancer SAS; format: cell-based, human
BxPC-3 = experiment: Cell viability analysis, pancreatic cancer BxPC-3; format: cell-based, human
[14] = system: HepG2 (Hepatocellular Carcinoma); experiment: Cell viability analysis, hepatic cancer HepG2; format: cell-based, human
[15] = system: BCC (basal cell carcinoma); experiment: Cell viability analysis, skin cancer BCC; format: cell-based, human
[16] = system: AGS (Gastric Adenocarcinoma); experiment: Cell viability analysis, gastric cancer AGS; format: cell-based, human
[17] = system: MCF7 (Mammary Gland, Adenocarcinoma); experiment: Cell viability analysis, breast cancer MCF7; format: cell-based, human
[18] = system: Hep3B (hepatocellular carcinoma); experiment: Cell viability analysis, hepatic cancer Hep3B; format: cell-based, human

COC(=O)Nc1nc2ccc([S+]([O-])c3ccccc3)cc2[nH]1 (stereo not drawn) [Oxfendazole]
viability at 10 µM (TOV-21G; Homo sapiens, TOV21G, 72 h, TOV-21G, repeated experiment, read-out: The results of antibiotic drug inhibiting cancer cell lines (cell viability analysis), TOV-21G): 65.1%
viability at 10 µM (T24; Homo sapiens, T-24, 72 h, T24, repeated experiment, read-out: The results of antibiotic drug inhibiting cancer cell lines (cell viability analysis), T24): 70.2%
viability [1]: 67.4%
viability at 10 µM ([2]; Homo sapiens, NCI-H1650, 72 h, H1650, repeated experiment, read-out: The results of antibiotic drug inhibiting cancer cell lines (cell viability analysis), H1650): 64%
viability at 10 µM ([3]; Homo sapiens, A-375, 72 h, A375, repeated experiment, read-out: The results of antibiotic drug inhibiting cancer cell lines (cell viability analysis), A375): 59.7%
viability at 10 µM ([4]; Homo sapiens, LoVo, 72 h, read-out: The results of antibiotic drug inhibiting cancer cell lines (cell viability analysis), LoVo, repeated experiment): 73.7%
viability at 10 µM (U-2OS; Homo sapiens, 72 h, U2OS, repeated experiment, read-out: The results of antibiotic drug inhibiting cancer cell lines (cell viability analysis), U2OS): 83.4%
viability at 10 µM (AsPC-1; Homo sapiens, ASPC1, 72 h, AsPC-1, repeated experiment, read-out: The results of antibiotic drug inhibiting cancer cell lines (cell viability analysis), AsPC-1): 50.9%
viability at 10 µM ([5]; Homo sapiens, 72 h, PC-3, repeated experiment, read-out: The results of antibiotic drug inhibiting cancer cell lines (cell viability analysis), PC-3): 72.7%
viability at 10 µM ([6]; Homo sapiens, 72 h, C-33A, repeated experiment, read-out: The results of antibiotic drug inhibiting cancer cell lines (cell viability analysis), C-33A): 86.4%
viability at 10 µM ([7]; Homo sapiens, A549, 72 h, A549, repeated experiment, read-out: The results of antibiotic drug inhibiting cancer cell lines (cell viability analysis), A549): 64.7%
viability at 10 µM ([8]; Homo sapiens, MDA-MB-231, 72 h, MDA-MB231, repeated experiment, read-out: The results of antibiotic drug inhibiting cancer cell lines (cell viability analysis), MDA-MB231): 73.9%
viability at 10 µM ([9]; Homo sapiens, 786-0, 72 h, 786-O, repeated experiment, read-out: The results of antibiotic drug inhibiting cancer cell lines (cell viability analysis), 786-O): 72.3%
viability at 10 µM ([10]; Homo sapiens, MKN-45, 72 h, MKN-45, repeated experiment, read-out: The results of antibiotic drug inhibiting cancer cell lines (cell viability analysis), MKN-45): 79.9%
viability at 10 µM ([11]; Homo sapiens, 72 h, TSGH-8301, repeated experiment, read-out: The results of antibiotic drug inhibiting cancer cell lines (cell viability analysis), TSGH-8301): 67.6%
viability at 10 µM ([12]; Homo sapiens, HeLa, 72 h, HeLa, repeated experiment, read-out: The results of antibiotic drug inhibiting cancer cell lines (cell viability analysis), HeLa): 37%
viability at 10 µM (NIH: OVCAR-3; Homo sapiens, 72 h, NIH-OVCAR-3, repeated experiment, read-out: The results of antibiotic drug inhibiting cancer cell lines (cell viability analysis), NIH-OVCAR-3): 62.2%
viability at 10 µM ([13]; Homo sapiens, 72 h, SAS, repeated experiment, read-out: The results of antibiotic drug inhibiting cancer cell lines (cell viability analysis), SAS): 72.3%
viability at 10 µM (BxPC-3; Homo sapiens, 72 h, BxPC-3, repeated experiment, read-out: The results of antibiotic drug inhibiting cancer cell lines (cell viability analysis), BxPC-3): 55%
viability at 10 µM ([14]; Homo sapiens, HepG2, 72 h, HepG2, repeated experiment, read-out: The results of antibiotic drug inhibiting cancer cell lines (cell viability analysis), HepG2): 99.4%
viability at 10 µM ([15]; Homo sapiens, 72 h, BCC, repeated experiment, read-out: The results of antibiotic drug inhibiting cancer cell lines (cell viability analysis), BCC): 55.3%
viability at 10 µM ([16]; Homo sapiens, 72 h, AGS, repeated experiment, read-out: The results of antibiotic drug inhibiting cancer cell lines (cell viability analysis), AGS): 51.4%
viability at 10 µM ([17]; Homo sapiens, MCF7, 72 h, MCF-7, repeated experiment, read-out: The results of antibiotic drug inhibiting cancer cell lines (cell viability analysis), MCF-7): 64.6%
viability at 10 µM ([18]; Homo sapiens, 72 h, Hep3B, repeated experiment, read-out: The results of antibiotic drug inhibiting cancer cell lines (cell viability analysis), Hep3B): 107%

CC(=O)Oc1ccccc1C(=O)Nc1ncc([N+](=O)[O-])s1 [Nitazoxanide (Alinia, Annita)]
The results of antibiotic drug inhibiting cancer cell lines (cell viability analysis), TOV-21G (TOV-21G): 62.56
The results of antibiotic drug inhibiting cancer cell lines (cell viability analysis), T24 (T24): 76.47
viability [1]: 98.4%
The results of antibiotic drug inhibiting cancer cell lines (cell viability analysis), H1650 [2]: 85.86
The results of antibiotic drug inhibiting cancer cell lines (cell viability analysis), A375 [3]: 94.2
The results of antibiotic drug inhibiting cancer cell lines (cell viability analysis), LoVo [4]: 94.76
The results of antibiotic drug inhibiting cancer cell lines (cell viability analysis), U2OS (U-2OS): 83.33
The results of antibiotic drug inhibiting cancer cell lines (cell viability analysis), AsPC-1 (AsPC-1): 84.09
The results of antibiotic drug inhibiting cancer cell lines (cell viability analysis), PC-3 [5]: 90.27
The results of antibiotic drug inhibiting cancer cell lines (cell viability analysis), C-33A [6]: 103.9
The results of antibiotic drug inhibiting cancer cell lines (cell viability analysis), A549 [7]: 95.57
The results of antibiotic drug inhibiting cancer cell lines (cell viability analysis), MDA-MB231 [8]: 91.23
The results of antibiotic drug inhibiting cancer cell lines (cell viability analysis), 786-O [9]: 44.2
The results of antibiotic drug inhibiting cancer cell lines (cell viability analysis), MKN-45 [10]: 97.28
The results of antibiotic drug inhibiting cancer cell lines (cell viability analysis), TSGH-8301 [11]: 87.18
The results of antibiotic drug inhibiting cancer cell lines (cell viability analysis), HeLa [12]: 84.93
The results of antibiotic drug inhibiting cancer cell lines (cell viability analysis), NIH-OVCAR-3 (NIH: OVCAR-3): 104.5
The results of antibiotic drug inhibiting cancer cell lines (cell viability analysis), SAS [13]: 78.89
The results of antibiotic drug inhibiting cancer cell lines (cell viability analysis), BxPC-3 (BxPC-3): 89.5
The results of antibiotic drug inhibiting cancer cell lines (cell viability analysis), HepG2 [14]: 107.5
The results of antibiotic drug inhibiting cancer cell lines (cell viability analysis), BCC [15]: 76
The results of antibiotic drug inhibiting cancer cell lines (cell viability analysis), AGS [16]: 99.04
The results of antibiotic drug inhibiting cancer cell lines (cell viability analysis), MCF-7 [17]: 79.28
The results of antibiotic drug inhibiting cancer cell lines (cell viability analysis), Hep3B [18]: 106.8
